Test results taken from US8912121B2, “Herbicidal compositions comprising 4-amino-3-chloro-5-fluoro-6-(4-chloro-2-fluoro-3-methoxyphenyl)pyridine-2-carboxylic acid or a derivative thereof and certain PS II inhibitors” (Dow Agrosciences LLC, priority 2012, dated 2014).
Several values for one entry are separate records, joined by “and”; a condition that tells them apart may be missing. Identical values can stand only once. Like-named read-outs stand apart in the source and are kept apart here.

Assays:
Experiment in all cases: Postemergence foliar-applied mixtures, direct seeded rice, greenhouse
[1] = tested on: ECHCG (Echinochloa crusgalli, barnyardgrass); type: in vivo, Echinochloa crusgalli (L.) Beauv.
Procedure: Seeds or nutlets of the desired test plant species were planted in a soil matrix prepared by mixing a loam or sandy loam soil (e.g., 28.6 percent silt, 18.8 percent clay, and 52.6 percent sand, with a pH of about 5.8 and an organic matter content of about 1.8 percent) and calcareous grit in an 80 to 20 ratio. The soil matrix was contained in plastic pots with a volume of 1 quart and a surface area of 83.6 square centimeters (cm^2). […] The plants were grown for 8-22 days in a greenhouse with an approximate 14 h photoperiod which was maintained at about 29° C. during the day and 26° C. during the night. Nutrients (Peters Excel® 15-5-15 5-Ca 2-Mg and iron chelate) were applied in the irrigation solution as needed and water was added on a regular basis. Supplemental lighting was provided with overhead metal halide 1000-Watt lamps as necessary. The plants were employed for testing when they reached the first through fourth true leaf stage.
(§1) Treatments consisted of the acid or esters of 4-amino-3-chloro-5-fluoro-6-(4-chloro-2-fluoro-3-methoxy-phenyl) pyridine-2-carboxylic acid (Compound A), each formulated as an SC (suspension concentrate), and various herbicidal components alone and in combination. Forms of compound A were applied on an acid equivalent basis.
(§2) Other herbicidal components were applied on an active ingredient basis and included Photosystem II (PSII)-inhibiting herbicides propanil formulated as Stam® M4 EC, bentazon-sodium formulated as Basagran®, atrazine formulated as Atrazine 90 WDG, bromoxynil octanoate ester formulated as Buctril®, simetryne (technical grade material), simazine formulated as Princep® Caliber 90, ioxynil (technical grade material), cyanazine (technical grade material), and hexazinone (technical grade material).
(§3) For treatments comprised of formulated compounds, measured amounts of compounds were placed individually in 25 mL glass vials and diluted in a volume of 1.25% (v/v) Agri-Dex® crop oil concentrated to obtain 12× stock solutions. […] Application solutions were prepared by adding an appropriate amount of each stock solution (e.g., 1 mL) and diluted to the appropriate final concentrations with the addition of 10 mL of an aqueous mixture of 1.25% (v/v) crop oil concentrate so that the final spray solutions contained 1.25+/−0.05% (v/v) crop oil concentrate.
(§4) For treatments comprised of technical compounds, weighed amounts can be placed individually in 25 mL glass vials and dissolved in a volume of 97:3 v/v acetone/DMSO to obtain 12× stock solutions. […] Application solutions can be prepared by adding an appropriate amount of each stock solution (e.g., 1 mL) and diluted to the appropriate final concentrations with the addition of 10 mL of an aqueous mixture of 1.5% (v/v) crop oil concentrate so that the final spray solutions contain 1.25% (v/v) crop oil concentrate. When technical materials are used, the concentrated stock solutions can be added to the spray solutions so that the final acetone and DMSO concentrations of the application solutions are 16.2% and 0.5%, respectively.
For treatments comprised of formulated and technical compounds, weighed amounts of the technical materials were placed individually in 25 mL glass vials and dissolved in a volume of 97:3 v/v acetone/DMSO to obtain 12× stock solutions, and measured amounts of the formulated compounds were placed individually in 25 mL glass vials and diluted in a volume of 1.5% (v/v) crop oil concentrate or water to obtain 12× stock solutions. […] Application solutions were prepared by adding an appropriate amount of each stock solution (eg, 1 mL) and diluted to the appropriate final concentrations with the addition of an appropriate amount of an aqueous mixture of 1.5% (v/v) crop oil concentrate so that the final spray solutions contained 1.25% (v/v) crop oil concentrate.

[2] = tested on: ECHCO (Echinochloa colona, junglerice); type: in vivo, Echinochloa colona (L.) Link
Text: Seeds or nutlets of the desired test plant species were planted in a soil matrix prepared by mixing a loam or sandy loam soil (e.g., 28.6 percent silt, 18.8 percent clay, and 52.6 percent sand, with a pH of about 5.8 and an organic matter content of about 1.8 percent) and calcareous grit in an 80 to 20 ratio. The soil matrix was contained in plastic pots with a volume of 1 quart and a surface area of 83.6 square centimeters (cm^2). When required to ensure good germination and healthy plants, a fungicide treatment and/or other chemical or physical treatment was applied. The plants were grown for 8-22 days in a greenhouse with an approximate 14 h photoperiod which was maintained at about 29° C. during the day and 26° C. during the night. Nutrients (Peters Excel® 15-5-15 5-Ca 2-Mg and iron chelate) were applied in the irrigation solution as needed and water was added on a regular basis. Supplemental lighting was provided with overhead metal halide 1000-Watt lamps as necessary. The plants were employed for testing when they reached the first through fourth true leaf stage.
as §1, §2
Treatment requirements were calculated based upon the rates being tested, the concentration of active ingredient or acid equivalent in the formulation, and a 12 mL application volume at a rate of 187 L/ha.
as §3, §4
For treatments comprised of formulated and technical compounds, weighed amounts of the technical materials were placed individually in 25 mL glass vials and dissolved in a volume of 97:3 v/v acetone/DMSO to obtain 12× stock solutions, and measured amounts of the formulated compounds were placed individually in 25 mL glass vials and diluted in a volume of 1.5% (v/v) crop oil concentrate or water to obtain 12× stock solutions. […]

[3] = tested on: IPOHE (Ipomoea hederacea, ivyleaf morningglory); type: in vivo, Ipomoea hederacea Jacq.; conditions: post-emergence
Procedure, shortened: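 Greenhouse plants in loam/grit soil (about 29/26°C, 14 h photoperiod) sprayed post-emergence at first to fourth true leaf stage at 187 L/ha. Compound A dosed as acid equivalent, partner PSII herbicides as active ingredient, alone and in mixtures, in spray solutions containing 1.25% crop oil concentrate.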

For `CCNc1nc(Cl)nc(NC(C)C)n1` [Atrazine, 6-chloro-N-ethyl-N′-(1-methylethyl)-1,3,5-triazine-2,4-diamine, reference compound], the “Visual Weed Control (%) Obs” value ([1]; 280 g ai/ha, 22 DAA) was 0%, the “Visual Weed Control (%) Obs” value ([1]; 560 g ai/ha, 22 DAA) was 20% and the “Visual Weed Control (%) Obs” value ([1]; 1120 g ai/ha, 22 DAA) was 70%. The “Visual Weed Control (%) Obs” value ([2]; 280 g ai/ha, 22 DAA) was 10%, the “Visual Weed Control (%) Obs” value ([2]; 560 g ai/ha, 22 DAA) was 10% and the “Visual Weed Control (%) Obs” value ([2]; 1120 g ai/ha, 22 DAA) was 60%.

For `COc1c(Cl)ccc(-c2nc(C(=O)O)c(Cl)c(N)c2F)c1F` [Compound A Acid, 4-amino-3-chloro-6-(4-chloro-2-fluoro-3-methoxyphenyl)-5-fluoropyridine-2-carboxylic acid], the “Visual Weed Control (%) Obs” value ([1]; 4.38 g ae/ha, 21 DAA) was 33%, the “Visual Weed Control (%) Obs” value ([1]; 4.38 g ae/ha, 22 DAA) was 20% and the “Visual Weed Control (%) Obs” value ([1]; 8.75 g ae/ha, 21 DAA) was 55%. For the same compound, the “Visual Weed Control (%) Obs” value ([2]; 4.38 g ae/ha, 21 DAA) was 43%, the “Visual Weed Control (%) Obs” value ([2]; 4.38 g ae/ha, 22 DAA) was 20% and the “Visual Weed Control (%) Obs” value ([2]; 8.75 g ae/ha, 21 DAA) was 63%. It also gave a pest or weed control at 19.4 g/ha ([3]; 480 h, 19.4 g ae/ha, 20 DAA, read-out: Visual Weed Control (%) Obs) of 15%, a pest or weed control at 21.2 g/ha ([3]; 480 h, 21.2 g ae/ha, 20 DAA, read-out: Visual Weed Control (%) Obs) of 35% and a pest or weed control at 42.4 g/ha ([3]; 480 h, 42.4 g ae/ha, 20 DAA, read-out: Visual Weed Control (%) Obs) of 55%. The pest or weed control at 4.38 g/ha ([3]; 504 h, 4.38 g ae/ha, 21 DAA, read-out: Visual Weed Control (%) Obs) was 15% and the pest or weed control at 8.75 g/ha ([3]; 504 h, 8.75 g ae/ha, 21 DAA, read-out: Visual Weed Control (%) Obs) was 35%.

With `COc1c(Cl)ccc(-c2nc(C(=O)OCc3ccccc3)c(Cl)c(N)c2F)c1F` [Compound A Benzyl Ester, benzyl ester of 4-amino-3-chloro-5-fluoro-6-(4-chloro-2-fluoro-3-methoxy-phenyl)pyridine-2-carboxylic acid] the “Visual Weed Control (%) Obs” value ([1]; 4.38 g ae/ha, 21 DAA) was 48%, the “Visual Weed Control (%) Obs” value ([1]; 8 g ae/ha, 20 DAA) was 70% and the “Visual Weed Control (%) Obs” value ([1]; 8 g ae/ha, 21 DAA) was 45%. For the same compound, the “Visual Weed Control (%) Obs” value ([1]; 8 g ae/ha, 22 DAA) was 35%, the “Visual Weed Control (%) Obs” value ([1]; 8.75 g ae/ha, 21 DAA) was 55% and the “Visual Weed Control (%) Obs” value ([1]; 16 g ae/ha, 20 DAA) was 90%. For the same compound, the “Visual Weed Control (%) Obs” value ([1]; 16 g ae/ha, 21 DAA) was 85%, the “Visual Weed Control (%) Obs” value ([1]; 16 g ae/ha, 22 DAA) was 65% and the “Visual Weed Control (%) Obs” value ([1]; 17.5 g ae/ha, 21 DAA) was 85%. The “Visual Weed Control (%) Obs” value ([1]; 32 g ae/ha, 20 DAA) was 90%, the “Visual Weed Control (%) Obs” value ([1]; 32 g ae/ha, 21 DAA) was 90% and the “Visual Weed Control (%) Obs” value ([1]; 32 g ae/ha, 22 DAA) was 80%. For the same compound, the “Visual Weed Control (%) Obs” value ([2]; 4.38 g ae/ha, 21 DAA) was 60%, the “Visual Weed Control (%) Obs” value ([2]; 8 g ae/ha, 20 DAA) was 65% and the “Visual Weed Control (%) Obs” value ([2]; 8 g ae/ha, 21 DAA) was 75% and 50%. The “Visual Weed Control (%) Obs” value ([2]; 8.75 g ae/ha, 21 DAA) was 68%, the “Visual Weed Control (%) Obs” value ([2]; 16 g ae/ha, 20 DAA) was 85% and the “Visual Weed Control (%) Obs” value ([2]; 16 g ae/ha, 21 DAA) was 85% and 65%. For the same compound, the “Visual Weed Control (%) Obs” value ([2]; 17.5 g ae/ha, 21 DAA) was 83%, the “Visual Weed Control (%) Obs” value ([2]; 32 g ae/ha, 20 DAA) was 95% and the “Visual Weed Control (%) Obs” value ([2]; 32 g ae/ha, 21 DAA) was 95% and 85%. The pest or weed control at 32 g/ha ([3]; 480 h, read-out: Visual Weed Control (%) Obs, 32 g ae/ha, 20 DAA) was 55%, the pest or weed control at 4.38 g/ha ([3]; 504 h, read-out: Visual Weed Control (%) Obs, 4.38 g ae/ha, 21 DAA) was 0% and the pest or weed control at 8 g/ha ([3]; 504 h, read-out: Visual Weed Control (%) Obs, 8 g ae/ha, 21 DAA) was 10%. For the same compound, the pest or weed control at 8.75 g/ha ([3]; 504 h, read-out: Visual Weed Control (%) Obs, 8.75 g ae/ha, 21 DAA) was 15%, the pest or weed control at 16 g/ha ([3]; 504 h, read-out: Visual Weed Control (%) Obs, 16 g ae/ha, 21 DAA) was 25% and the pest or weed control at 17.5 g/ha ([3]; 504 h, read-out: Visual Weed Control (%) Obs, 17.5 g ae/ha, 21 DAA) was 38%. The pest or weed control at 17.5 g/ha ([3]; 504 h, read-out: Visual Weed Control (%) Obs, 17.5 g ae/ha, 21 DAA (second set, r27-r31)) was 38%, the pest or weed control at 32 g/ha ([3]; 504 h, read-out: Visual Weed Control (%) Obs, 32 g ae/ha, 21 DAA) was 60% and the pest or weed control at 35 g/ha ([3]; 504 h, read-out: Visual Weed Control (%) Obs, 35 g ae/ha, 21 DAA) was 55%.

With `CCC(=O)Nc1ccc(Cl)c(Cl)c1` [Propanil, N-(3,4-dichlorophenyl)propanamide, reference compound] the “Visual Weed Control (%) Obs” value ([1]; 420 g ai/ha, 21 DAA) was 10%, the “Visual Weed Control (%) Obs” value ([1]; 840 g ai/ha, 21 DAA) was 10% and the “Visual Weed Control (%) Obs” value ([1]; 1680 g ai/ha, 21 DAA) was 40%. For the same compound, the “Visual Weed Control (%) Obs” value ([2]; 420 g ai/ha, 21 DAA) was 10%, the “Visual Weed Control (%) Obs” value ([2]; 840 g ai/ha, 21 DAA) was 25% and the “Visual Weed Control (%) Obs” value ([2]; 1680 g ai/ha, 21 DAA) was 25%. It also gave a pest or weed control at 3360 g/ha ([3]; 480 h, 3360 g ai/ha, 20 DAA, read-out: Visual Weed Control (%) Obs) of 40%, a pest or weed control at 420 g/ha ([3]; 504 h, 420 g ai/ha, 21 DAA, read-out: Visual Weed Control (%) Obs) of 0% and a pest or weed control at 840 g/ha ([3]; 504 h, 840 g ai/ha, 21 DAA, read-out: Visual Weed Control (%) Obs) of 0%. The pest or weed control at 1680 g/ha ([3]; 504 h, 1680 g ai/ha, 21 DAA, read-out: Visual Weed Control (%) Obs) was 0%.

With `CCNc1nc(Cl)nc(NCC)n1` [Simazine, 6-chloro-N,N′-diethyl-1,3,5-triazine-2,4-diamine, reference compound] the “Visual Weed Control (%) Obs” value ([1]; 560 g ai/ha, 20 DAA) was 0%, the “Visual Weed Control (%) Obs” value ([1]; 1120 g ai/ha, 20 DAA) was 0% and the “Visual Weed Control (%) Obs” value ([1]; 2240 g ai/ha, 20 DAA) was 0%. The “Visual Weed Control (%) Obs” value ([2]; 560 g ai/ha, 20 DAA) was 0%, the “Visual Weed Control (%) Obs” value ([2]; 1120 g ai/ha, 20 DAA) was 0% and the “Visual Weed Control (%) Obs” value ([2]; 2240 g ai/ha, 20 DAA) was 0%.
